# In patent publication US12715851B2, “4′-substituted analogues of fisetin and their use in the treatment of cancer” (Stellenbosch University, priority 2020, dated 2026):
# Key:
# [1] = tested on: cytochrome b5 reductase (Cytb5R); assay: Hepatotoxicity: specific activity of cytochrome b5 reductase; format: in vivo, swiss albino mice; details: 50 mg/kg orally, two weeks
# Method: (§1) Hepatotoxicity is considered to be one of the major challenges for drug development schemes. The liver is the primary organ for the metabolism or biotransformation of a given drug. To assess the hepatotoxicity of these compounds, the effects of Fisetin and analogue 3c on various hepatic enzymes was assessed.
# (§2) A lipid peroxidation assay was performed on microsomal liver fraction and determined in terms of TBARS formation. […] The modulatory effects of Fisetin and analogue 3c were determined on the specific activities of cytochrome b5 reductase (Cytb5R) and cytochrome P450 reductase (CytP450R), phase I enzyme of xenobiotic metabolism. Fisetin and analogue 3c caused reduction in the specific activity of cytochrome b5 reductase. Fisetin decreased Cytb5R specific activity by 66% whereas analogue 3c (50 mg/kg) caused a 36% reduction in specific activity (FIG. 7F). An increase in specific activity of CytP450R by Fisetin and analogue 3c was observed. Fisetin and analogue 3c (50 mg/kg) increased the specific activity by 15% and 13%, respectively (FIG. 7G). Next, the specific activities of phase II enzymes, glutathione S-transferase (GST) and reduced glutathione (GSH) were measured. […] Fisetin and analogue 3c (50 mg/kg) caused a decrease in specific activity of GSH by 34% and 7%, respectively (FIG. 7I). […] These analogues are therefore likely to be effective and safe phytochemicals.
# [2] = tested on: lipid peroxidation (MDA formation); assay: Hepatotoxicity: lipid peroxidation assay on microsomal liver fraction (TBARS); format: in vivo, swiss albino mice; details: microsomal liver fraction of treated mice
# Method: as §1, §2
# [3] = tested on: SOD; assay: Hepatotoxicity: specific activity of SOD; format: in vivo, swiss albino mice; details: liver of treated mice
# Method: as §1, §2
# [4] = tested on: B(a)P-induced lung carcinogenesis; assay: B(a)P-induced lung carcinogenesis, Initiation and Promotion Protocols; format: in vivo, Swiss albino mice
# Text: To assess whether Fisetin and its 4-bromo-Fisetin analogue (Fisetin analogue 3c) have anticarcinogenesis activity and if any toxicity in terms of water and food consumption, and body weight, Benzo[a]pyrene [B(a)P] induced lung carcinogenesis in Swiss albino mice were employed in the study. Along with the antitumor activity of the agents, the body weight, food and water intake in different treatment groups were monitored on regular intervals and analysed.
# There were six different treatment groups in the study including, (1) control, (2) B(a)P, (3) Fisetin+B(a)P, (4) Fisetin analogue 3c+B(a)P, (5) B(a)P+Fisetin and (6) B(a)P+Fisetin analogue 3c.
# Groups 3 and 4 represent the Initiation Protocol (agents treatment started 1 week before carcinogen treatment and continued 1 week after the last dose of the carcinogen). Groups 5 and 6 represent the Promotion Protocol (agents treatment started after 3 weeks of the carcinogen treatment). The B(a)P was given orally twice a week for 4 weeks at 50 mg/kg body weight dose, whereas Fisetin and Fisetin analogue (3c) were administered orally at 25 mg/kg body weight thrice weekly (see FIG. 9).
# [5] = tested on: reduced glutathione (GSH); assay: Hepatotoxicity: reduced glutathione; format: in vivo, swiss albino mice; details: 50 mg/kg orally, two weeks
# Method: as §1, §2
# [6] = Acute toxicity, fed orally for two weeks; format: in vivo; details: Fisetin 50 mg/kg, 3c 25 and 50 mg/kg body weight
# Method: Fisetin analogue 3c was used to assess the potential toxicity of these analogues in a pre-clinical model. To test the acute toxicity, Fisetin (50 mg/kg body weight), analogue 3c (25 mg/kg and 50 mg/kg body weight), and vehicle control (5% DMSO, 45% PEG-300 and 50% saline) was fed orally for two weeks. Abnormal clinical signs such as decreased motor activity, sensory reflection, body weight, food intake, and water intake were monitored during the treatment period. An increase in body weight was observed among all groups throughout the treatment period (FIG. 7A). […] This variation could be due to consistent frequency of dosage.
# [7] = tested on: cytochrome P450 reductase (CytP450R); assay: Hepatotoxicity: specific activity of cytochrome P450 reductase; format: in vivo, swiss albino mice; details: 50 mg/kg orally, two weeks
# Method: as §1, §2
# [8] = cited from earlier work
# [9] = tested on: glutathione S-transferase (GST); assay: Hepatotoxicity: specific activity of glutathione S-transferase; format: in vivo, swiss albino mice; details: liver of treated mice
# Method: as §1, §2
# [10] = tested on: 22rv1 prostate carcinoma cells; details: retained on methylation of the 3-hydroxy group; cited from earlier work
# [11] = tested on: a range of cancer cell lines; details: reported in the literature; cited from earlier work
smiles,measurement,setting,value
O=c1c(O)c(-c2ccc(O)c(O)c2)oc2cc(O)ccc12 [Fisetin],reduction in specific activity of cytochrome b5 reductase,[1],66%
same,MDA formation (TBARS),[2],No significant change
same,specific activity of SOD,[3],moderately induced
same,systemic toxicity during long-term application,[4]; 25 mg/kg orally thrice weekly,did not show any systemic toxicity
same,"tumorigenic features in lung histology (nucleus size, cytoplasmic content, alveoli)",[4]; 25 mg/kg orally thrice weekly,reversal of the tumorigenic features
same,"tumor incidence, histopathology of H&E stained serial sections",[4]; compared to the carcinogen treated group,less
same,"area or size of tumor lesions, in words",[4]; tumor initiation phase / initiation protocol,not effective as compared to the analogue
same,"tumor lesions per mouse and total number of lesions per group, in words",[4]; versus B(a)P group,strongly reduced
same,decrease in specific activity of GSH,[5],34%
same,"toxicity in mice, in words",[6],did not cause toxicity
same,increase in specific activity of CytP450R,[7],15%
same,pKa of the 4′-hydroxyl group,[8],~ 9.4
same,pKa of the 7-hydroxyl group,[8]; most acidic position,~ 7.3
same,specific activities of GST compared to the control group,[9],did not cause significant change
COc1cc(-c2oc3ccccc3c(=O)c2O)cc(OC)c1OC [TMFol],activity against 22rv1 prostate carcinoma cells,[10],low micromolar activity
O=C1C[C@@H](c2ccc(O)cc2)Oc2cc(O)cc(O)c21 [navingenin],activity against cancer cell lines compared to apigenin,[11],inactive
